Tests used:
Vertebral artery = assay: Vasodilating activity: increase in vertebral blood flow in anesthetized dogs; type: in vivo, Hybrid adult dogs; settings: i.v., n = 3 anesthetized dogs, vs. prior to administration
Description: (§1) A suspension of the compounds produced in the above examples in 0.5% HCO 60 solution was administered through the lateroradial dermal vein. […] As a control drug was employed Cinnepazied (1-[(1-pyrrolidinylcarbonyl)methyl]-4-(3,4,5-trimethyoxycinnamoyl)piperazine).

Coronary artery = assay: Vasodilating activity: increase in coronary blood flow in anesthetized dogs; type: in vivo, Hybrid adult dogs; settings: i.v., n = 3 anesthetized dogs, vs. prior to administration
Description: as §1

Row | SMILES | Increase in blood flow (Δ% ± SE), Vertebral artery (Vertebral artery; 0.3 mg/kg) | Increase in blood flow (Δ% ± SE), Vertebral artery (Vertebral artery; 1.0 mg/kg) | Increase in blood flow (Δ% ± SE), Coronary artery (Coronary artery; 0.3 mg/kg) | Increase in blood flow (Δ% ± SE), Coronary artery (Coronary artery; 1.0 mg/kg)
1 | COc1cc(C=CC(=O)N2CCN(CC(=O)N3CCCC3)CC2)cc(OC)c1OC [Cinnepazid, 1-[(1-pyrrolidinylcarbonyl)methyl]-4-(3,4,5-trimethyoxycinnamoyl)piperazine, reference compound] | 1.5 ± 0.4 Δ% | 5.6 ± 0.2 Δ% | 2.1 ± 0.8 Δ% | 10.0 ± 0.5 Δ%
2 | COc1cc(/C=C/C=C/C(=O)NCCO[N+](=O)[O-])cc(OC)c1OC [Example 1, N-(β-hydroxyethyl)-5-(3,4,5-trimethoxyphenyl)-2,4-pentadienoic acid amide nitrate] | 50.0 ± 2.4 Δ% | 83.3 ± 7.5 Δ% | 3.6 ± 0.2 Δ% | 28.6 ± 1.9 Δ%
3 | COc1cc(/C=C/C(=O)NCCO[N+](=O)[O-])cc(OC)c1OC [Example 2, N-(β-hydroxyethyl)-3,4,5-trimethoxycinnamic acid amide nitrate] | 35.0 ± 1.7 Δ% | 58.3 ± 5.3 Δ% | 3.8 ± 0.5 Δ% | 22.9 ± 1.5 Δ%

Reference: patent publication US4780560A, “Nitrate derivatives and vasodilators containing the same” (priority 1986, dated 1988)
